Measured values published in US20120095028A1, “3-OXA-7-AZABICYCLO[3.3.1]NONANES” (Pfizer Inc., priority 2009, published 2012).
“And” between values parts separate entries of the source, which are not always exact repeats. Equal values may be shown once.

Biological target: T1, human GPR119 (Homo sapiens, UniProt Q8TDV5)
T1 construct: host or cells: HEK293-CRE-β-lactamase cells expressing hGPR119
T1 sequence (Q8TDV5 1-335): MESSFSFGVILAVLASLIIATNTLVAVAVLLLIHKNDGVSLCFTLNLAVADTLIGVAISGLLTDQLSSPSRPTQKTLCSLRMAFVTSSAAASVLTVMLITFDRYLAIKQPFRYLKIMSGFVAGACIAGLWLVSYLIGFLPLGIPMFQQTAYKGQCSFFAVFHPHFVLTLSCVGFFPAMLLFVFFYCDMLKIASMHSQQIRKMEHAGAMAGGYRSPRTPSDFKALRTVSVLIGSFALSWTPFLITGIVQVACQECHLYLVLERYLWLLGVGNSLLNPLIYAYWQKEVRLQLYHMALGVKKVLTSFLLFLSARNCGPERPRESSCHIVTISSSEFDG
Experiment: GPR119 agonist cell-based hGPR119 HEK293-CRE β-lactamase reporter assay
Details: one value per run; for EC50: hGPR119-HEK-CRE-β-lactamase cells, 16 hours incubation; for Emax: read-out: Intrinsic Activity*
Method: The assay for GPR119 agonists utilizes a cell-based (hGPR119 HEK293-CRE β-lactamase) reporter construct where agonist activation of human GPR119 is coupled to β-lactamase production via a cyclic AMP response element (CRE). GPR119 activity is then measured utilizing a FRET-enabled R-lactamase substrate, CCF4-AM (Live Blazer FRET-B/G Loading kit, Invitrogen cat #K1027). Specifically, hGPR119-HEK-CRE-β-lactamase cells (Invitrogen 2.5×10^7/mL) were removed from liquid nitrogen storage, and diluted in plating medium (Dulbecco's modified Eagle medium high glucose (DMEM; Gibco Cat #11995-065), 10% heat inactivated fetal bovine serum (HIFBS; Sigma Cat #F4135), 1× MEM Nonessential amino acids (Gibco Cat #15630-080), 25 mM HEPES pH 7.0 (Gibco Cat #15630-080), 200 nM potassium clavulanate (Sigma Cat #P3494). The cell concentration was adjusted using cell plating medium and 50 μL of this cell suspension (12.5×10^4 viablecells) was added into each well of a black, clear bottom, poly-d-lysine coated 384-well plate (Greiner Bio-One cat #781946) and incubated at 37° C. in a humidified environment containing 5% carbon dioxide. After 4 hours the plating medium was removed and replaced with 40 μL of assay medium (Assay medium is plating medium without potassium clavulanate and HIFBS). Varying concentrations of each compound to be tested was then added in a volume of 10 uL (final DMSO≦0.5%) and the cells were incubated for 16 hours at 37° C. in a humidified environment containing 5% carbon dioxide. Plates were removed from the incubator and allowed to equilibrate to room temperature for approximately 15 minutes. 10 uL of 6× CCF4/AM working dye solution (prepared according to instructions in the Live Blazer FRET-B/G Loading kit, Invitrogen cat #K1027) was added per well and incubated at room temperature for 2 hours in the dark. Fluorescence was measured on an EnVision fluorimetric plate reader, excitation 405 nm, emission 460 nm/535 nm. EC50 determinations were made from agonist-response curves analyzed with a curve fitting program using a 4-parameter logistic dose-response equation.

[1] = percent of maximal activity relative to standard GPR119 agonist at a final concentration of 10 μM

`CC(C)OC(=O)N1C[C@H]2COC[C@@H](C1)[C@@H]2Oc1ncnc2c1CCN2c1ccc(S(C)(=O)=O)cc1F` [Example 1, Isopropyl 9-syn-({7-[2-fluoro-4-(methylsulfonyl)phenyl]-6,7-dihydro-5H-pyrrolo[2,3-d]pyrimidin-4-yl}oxy)-3-oxa-7-azabicyclo[3.3.1]nonane-7-carboxylate] was tested, and the EC50 was 10.5 nM and 12.8 nM and 23.3 nM, the “Intrinsic Activity*” value [1] was 88% and 87% and the Emax [1] was 90%.

An EC50 of 23.8 nM and an Emax [1] of 93% were found for `CC(C)OC(=O)N1C[C@H]2COC[C@@H](C1)[C@H]2Oc1ncnc2c1CCN2c1ccc(S(C)(=O)=O)cc1F` [Example 2, Isopropyl 9-anti-({7-[2-fluoro-4-(methylsulfonyl)phenyl]-6,7-dihydro-5H-pyrrolo[2,3-d]pyrimidin-4-yl}oxy)-3-oxa-7-azabicyclo[3.3.1]nonane-7-carboxylate] in this work.
